Tests used:
Experiment in all cases: Competitive isoTOP-ABPP in situ (fragment-treated cells)
Assay type in all cases: cell-based
[1] = target: T1, cysteines in MDA-MB-231 and Ramos cells (Homo sapiens, UniProt Q9HCC0); conditions: 200 μM, insitu
T1 sequence (Q9HCC0 23-563): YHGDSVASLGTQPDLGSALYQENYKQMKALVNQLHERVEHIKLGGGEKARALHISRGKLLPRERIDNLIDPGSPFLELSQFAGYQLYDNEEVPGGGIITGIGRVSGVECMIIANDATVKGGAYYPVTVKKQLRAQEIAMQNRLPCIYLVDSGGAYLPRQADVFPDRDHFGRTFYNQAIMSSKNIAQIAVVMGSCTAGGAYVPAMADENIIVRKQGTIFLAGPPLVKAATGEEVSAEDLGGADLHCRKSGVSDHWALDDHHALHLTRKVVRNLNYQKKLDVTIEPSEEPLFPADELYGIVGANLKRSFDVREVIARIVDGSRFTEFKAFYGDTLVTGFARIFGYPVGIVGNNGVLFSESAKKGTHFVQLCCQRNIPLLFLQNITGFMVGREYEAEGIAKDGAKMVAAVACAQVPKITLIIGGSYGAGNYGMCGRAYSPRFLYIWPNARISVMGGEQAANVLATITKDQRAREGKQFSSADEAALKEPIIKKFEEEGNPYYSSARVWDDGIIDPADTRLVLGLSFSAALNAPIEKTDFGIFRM

[2] = target: T2, cysteines in MDA-MB-231 and Ramos cells (Homo sapiens, UniProt P23919); conditions: 200 μM, insitu, 231
T2 sequence (P23919 1-212): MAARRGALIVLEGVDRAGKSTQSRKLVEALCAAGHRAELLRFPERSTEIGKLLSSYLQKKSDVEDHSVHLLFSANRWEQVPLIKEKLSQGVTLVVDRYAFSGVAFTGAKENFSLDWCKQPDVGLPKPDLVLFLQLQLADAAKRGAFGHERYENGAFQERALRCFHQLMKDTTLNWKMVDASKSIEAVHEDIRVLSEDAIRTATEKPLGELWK

[3] = target: cysteines in MDA-MB-231 and Ramos cells (Homo sapiens, UniProt O00299); conditions: 200 μM, insitu
[4] = target: T3, cysteines in MDA-MB-231 and Ramos cells (Homo sapiens, UniProt P24752); conditions: 200 μM, insitu
T3 sequence (P24752 34-427): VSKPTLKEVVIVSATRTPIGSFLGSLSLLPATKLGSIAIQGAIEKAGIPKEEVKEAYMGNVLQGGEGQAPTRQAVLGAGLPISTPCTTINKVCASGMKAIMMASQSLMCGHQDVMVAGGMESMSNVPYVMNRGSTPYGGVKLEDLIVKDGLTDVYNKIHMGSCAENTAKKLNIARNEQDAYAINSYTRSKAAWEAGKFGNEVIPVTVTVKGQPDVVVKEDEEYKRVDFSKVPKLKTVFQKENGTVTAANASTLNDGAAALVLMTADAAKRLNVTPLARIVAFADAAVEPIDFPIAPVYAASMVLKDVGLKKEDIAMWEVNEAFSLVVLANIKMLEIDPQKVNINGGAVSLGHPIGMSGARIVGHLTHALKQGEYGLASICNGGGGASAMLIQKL

[5] = target: T4, cysteines in MDA-MB-231 and Ramos cells (Homo sapiens, UniProt Q9BTA9); conditions: 200 μM, insitu, 231
T4 sequence (Q9BTA9 1-647): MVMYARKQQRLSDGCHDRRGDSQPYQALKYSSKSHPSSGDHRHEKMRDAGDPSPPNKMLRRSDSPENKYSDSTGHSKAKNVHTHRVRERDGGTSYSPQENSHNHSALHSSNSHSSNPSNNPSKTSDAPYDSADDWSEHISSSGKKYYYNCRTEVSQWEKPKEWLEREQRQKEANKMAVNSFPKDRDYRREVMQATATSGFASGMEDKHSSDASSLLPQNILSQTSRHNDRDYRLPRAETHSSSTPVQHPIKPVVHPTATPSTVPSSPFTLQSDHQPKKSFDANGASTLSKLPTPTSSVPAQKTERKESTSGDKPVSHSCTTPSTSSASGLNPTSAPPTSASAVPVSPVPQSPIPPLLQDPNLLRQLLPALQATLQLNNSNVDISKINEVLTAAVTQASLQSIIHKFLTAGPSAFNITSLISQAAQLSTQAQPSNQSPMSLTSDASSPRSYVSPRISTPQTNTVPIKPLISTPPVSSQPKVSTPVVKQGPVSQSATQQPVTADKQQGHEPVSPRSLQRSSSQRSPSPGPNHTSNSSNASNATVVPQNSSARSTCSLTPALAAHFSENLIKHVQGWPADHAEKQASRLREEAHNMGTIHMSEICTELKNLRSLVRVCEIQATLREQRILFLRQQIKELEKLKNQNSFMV

[6] = target: T5, cysteines in MDA-MB-231 and Ramos cells (Homo sapiens, UniProt Q96AB3); conditions: 200 μM, insitu, 231
T5 sequence (Q96AB3 1-205): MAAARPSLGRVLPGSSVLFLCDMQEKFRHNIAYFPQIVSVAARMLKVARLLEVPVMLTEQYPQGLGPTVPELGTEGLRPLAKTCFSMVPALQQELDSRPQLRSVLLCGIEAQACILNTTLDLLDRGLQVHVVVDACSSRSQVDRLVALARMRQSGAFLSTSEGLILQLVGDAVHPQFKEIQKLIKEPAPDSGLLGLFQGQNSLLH

SMILES | isoTOP-ABPP ratio Q9HCC0_C216 ([1]; ramos) | isoTOP-ABPP ratio, cysteine P23919_C117 [2] | isoTOP-ABPP ratio O00299_C24 ([3]; ramos) | isoTOP-ABPP ratio P24752_C119 [4]; 231 | isoTOP-ABPP ratio P24752_C413 [4]; 231 | isoTOP-ABPP ratio P24752_C119 ([4]; ramos) | isoTOP-ABPP ratio P24752_C413 ([4]; ramos) | isoTOP-ABPP ratio Q9BTA9_C553 [5] | isoTOP-ABPP ratio Q96AB3_C114 [6] | isoTOP-ABPP ratio Q9HCC0_C216 [1]; 231 | isoTOP-ABPP ratio O00299_C24 [3]; 231 | isoTOP-ABPP ratio, P24752_C126 [4]; 231 | isoTOP-ABPP ratio, P24752_C196 [4]; 231 | isoTOP-ABPP ratio P23919_C163 [2]
O=C(CCl)NCCc1c[nH]c2ccccc12 [compound 13] | 1.8 | 0.6 | 1.8 | 2.1 | 3.5 | 2.8 | 20.0 | 1.4 | 2.4 | – | – | – | – | –
O=C(CCl)NC12CC3CC(CC(C3)C1)C2 [compound 21] | – | 0.9 | – | 1.6 | 1.5 | – | – | 2.8 | 4.9 | 2.2 | 0.7 | 1.4 | 1.5 | –
Cc1ccc(C=C(C#N)C(=O)NCCN2CCOCC2)cc1 [compound 41] | – | – | – | 1.9 | 0.9 | – | – | 1.0 | 0.7 | 1.0 | 0.6 | 0.8 | 0.9 | 0.2

Reference: patent US10670605B2, “Cysteine reactive probes and uses thereof” (The Scripps Research Institute, priority 2015, dated 2020)
